From PMC4774911, “Biochemical Screening of Five Protein Kinases from Plasmodium falciparum against 14,000 Cell-Active Compounds” (PLoS ONE, 2016) come the findings set out here.

Molecules are shown by their SMILES. Where “and” joins values, the source holds several entries; their conditions need not be identical. Equal entries are not always repeated. Some results are limits rather than exact numbers.

Among the targets are MELK (Homo sapiens, UniProt Q14680); CSNK2A2 (Homo sapiens, UniProt P19784); STK10 (Homo sapiens, UniProt O94804); MAP4K5 (Homo sapiens, UniProt Q9Y4K4); KIAA0999 (Homo sapiens, UniProt Q9Y2K2); OXSR1 (Homo sapiens, UniProt O95747); RPS6KA5 (Homo sapiens, UniProt O75582).
Common to all, as to assay: biochemical
In a further experiment the target is T1, EPHB6 (Homo sapiens, UniProt O15197).
T1 sequence (O15197 1-1021): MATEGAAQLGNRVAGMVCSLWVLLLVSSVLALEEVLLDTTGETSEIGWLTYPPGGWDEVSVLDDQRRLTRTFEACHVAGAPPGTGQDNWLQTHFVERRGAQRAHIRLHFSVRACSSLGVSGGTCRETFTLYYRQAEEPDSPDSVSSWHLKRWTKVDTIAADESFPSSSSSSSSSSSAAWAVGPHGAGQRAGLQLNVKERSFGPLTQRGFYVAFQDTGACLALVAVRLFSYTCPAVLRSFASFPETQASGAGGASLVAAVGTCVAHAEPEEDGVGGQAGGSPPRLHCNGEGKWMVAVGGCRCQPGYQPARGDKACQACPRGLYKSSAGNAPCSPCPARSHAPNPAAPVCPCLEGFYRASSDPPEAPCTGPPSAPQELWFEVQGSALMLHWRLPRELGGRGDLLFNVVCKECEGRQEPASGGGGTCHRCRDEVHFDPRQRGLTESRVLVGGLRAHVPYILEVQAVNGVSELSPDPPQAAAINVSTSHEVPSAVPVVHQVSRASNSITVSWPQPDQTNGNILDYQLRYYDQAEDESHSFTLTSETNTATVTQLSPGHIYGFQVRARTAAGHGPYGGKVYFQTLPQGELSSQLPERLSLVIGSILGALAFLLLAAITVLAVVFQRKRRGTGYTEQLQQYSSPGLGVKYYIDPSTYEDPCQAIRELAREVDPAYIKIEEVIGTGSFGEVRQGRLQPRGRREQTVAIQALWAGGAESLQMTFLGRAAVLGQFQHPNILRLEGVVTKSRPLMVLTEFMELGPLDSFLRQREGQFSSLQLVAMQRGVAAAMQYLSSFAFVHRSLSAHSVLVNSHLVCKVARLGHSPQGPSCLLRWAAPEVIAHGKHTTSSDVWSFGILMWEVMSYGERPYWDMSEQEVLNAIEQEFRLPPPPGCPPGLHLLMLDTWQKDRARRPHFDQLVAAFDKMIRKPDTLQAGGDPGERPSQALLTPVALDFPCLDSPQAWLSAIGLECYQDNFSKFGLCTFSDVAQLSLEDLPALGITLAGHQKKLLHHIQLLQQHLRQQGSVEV

Another experiment has as its target T2, NEK1 (Homo sapiens, UniProt Q96PY6).
T2 sequence (Q96PY6 1-1258): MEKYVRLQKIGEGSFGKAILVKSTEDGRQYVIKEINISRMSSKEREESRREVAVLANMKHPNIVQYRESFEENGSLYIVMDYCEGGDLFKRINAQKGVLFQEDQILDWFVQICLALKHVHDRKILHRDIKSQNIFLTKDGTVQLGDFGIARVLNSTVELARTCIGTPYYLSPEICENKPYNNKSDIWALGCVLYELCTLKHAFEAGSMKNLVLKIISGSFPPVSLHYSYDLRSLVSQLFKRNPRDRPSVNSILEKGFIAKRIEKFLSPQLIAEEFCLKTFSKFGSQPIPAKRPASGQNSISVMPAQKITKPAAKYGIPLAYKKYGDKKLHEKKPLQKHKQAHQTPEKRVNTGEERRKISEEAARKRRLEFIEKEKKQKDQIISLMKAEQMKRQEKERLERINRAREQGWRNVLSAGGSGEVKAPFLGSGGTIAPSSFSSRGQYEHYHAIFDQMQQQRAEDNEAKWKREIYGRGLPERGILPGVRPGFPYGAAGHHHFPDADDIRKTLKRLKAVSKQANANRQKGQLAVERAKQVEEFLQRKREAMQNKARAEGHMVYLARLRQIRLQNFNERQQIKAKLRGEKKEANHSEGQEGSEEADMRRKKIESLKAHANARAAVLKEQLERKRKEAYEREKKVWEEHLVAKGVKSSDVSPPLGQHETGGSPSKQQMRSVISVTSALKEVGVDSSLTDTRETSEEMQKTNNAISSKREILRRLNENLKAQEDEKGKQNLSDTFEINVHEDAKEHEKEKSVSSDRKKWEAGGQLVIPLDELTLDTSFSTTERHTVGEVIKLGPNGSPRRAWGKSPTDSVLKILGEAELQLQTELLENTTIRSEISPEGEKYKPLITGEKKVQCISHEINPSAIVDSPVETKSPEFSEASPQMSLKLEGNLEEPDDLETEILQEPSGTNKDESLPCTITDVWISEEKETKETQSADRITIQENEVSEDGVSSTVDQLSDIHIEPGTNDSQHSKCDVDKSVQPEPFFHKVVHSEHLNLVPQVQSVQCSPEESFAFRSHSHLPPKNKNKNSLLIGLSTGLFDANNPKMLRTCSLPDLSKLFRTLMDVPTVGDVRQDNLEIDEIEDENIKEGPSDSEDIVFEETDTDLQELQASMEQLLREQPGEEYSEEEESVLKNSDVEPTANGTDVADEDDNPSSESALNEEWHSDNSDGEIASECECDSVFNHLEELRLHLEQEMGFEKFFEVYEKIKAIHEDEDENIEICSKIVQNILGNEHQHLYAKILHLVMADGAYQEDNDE

RPS6KA5, sequence (O75582 whole entry): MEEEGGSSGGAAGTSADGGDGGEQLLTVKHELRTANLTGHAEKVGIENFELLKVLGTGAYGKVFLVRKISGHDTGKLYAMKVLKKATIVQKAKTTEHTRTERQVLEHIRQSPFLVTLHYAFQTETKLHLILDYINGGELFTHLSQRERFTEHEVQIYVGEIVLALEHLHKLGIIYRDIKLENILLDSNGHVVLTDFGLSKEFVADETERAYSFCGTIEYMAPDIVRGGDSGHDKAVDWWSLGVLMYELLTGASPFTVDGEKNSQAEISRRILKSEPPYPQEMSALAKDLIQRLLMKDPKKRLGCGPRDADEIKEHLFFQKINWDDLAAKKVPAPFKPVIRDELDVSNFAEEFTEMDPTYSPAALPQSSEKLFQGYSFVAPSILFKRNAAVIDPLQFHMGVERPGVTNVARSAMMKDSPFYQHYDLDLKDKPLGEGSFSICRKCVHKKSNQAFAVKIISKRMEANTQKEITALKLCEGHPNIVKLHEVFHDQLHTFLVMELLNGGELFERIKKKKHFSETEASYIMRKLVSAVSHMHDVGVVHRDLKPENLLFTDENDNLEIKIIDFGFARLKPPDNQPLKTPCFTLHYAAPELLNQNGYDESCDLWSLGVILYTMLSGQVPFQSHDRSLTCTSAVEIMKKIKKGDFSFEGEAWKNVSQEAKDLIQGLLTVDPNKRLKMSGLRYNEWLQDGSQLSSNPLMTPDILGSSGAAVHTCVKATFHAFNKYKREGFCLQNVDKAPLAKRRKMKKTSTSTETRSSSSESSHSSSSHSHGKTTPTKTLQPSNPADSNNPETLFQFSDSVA
CSNK2A2, sequence (P19784 whole entry): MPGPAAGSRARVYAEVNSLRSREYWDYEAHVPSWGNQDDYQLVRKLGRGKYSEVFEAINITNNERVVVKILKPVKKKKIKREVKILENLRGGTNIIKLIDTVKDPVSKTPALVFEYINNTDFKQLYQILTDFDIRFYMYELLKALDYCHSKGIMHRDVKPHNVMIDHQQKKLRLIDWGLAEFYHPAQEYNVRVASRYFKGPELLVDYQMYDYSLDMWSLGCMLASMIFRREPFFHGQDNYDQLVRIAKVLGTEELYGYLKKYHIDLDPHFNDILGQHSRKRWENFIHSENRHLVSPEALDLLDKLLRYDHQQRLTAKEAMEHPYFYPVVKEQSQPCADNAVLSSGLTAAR
MELK, sequence (Q14680 whole entry): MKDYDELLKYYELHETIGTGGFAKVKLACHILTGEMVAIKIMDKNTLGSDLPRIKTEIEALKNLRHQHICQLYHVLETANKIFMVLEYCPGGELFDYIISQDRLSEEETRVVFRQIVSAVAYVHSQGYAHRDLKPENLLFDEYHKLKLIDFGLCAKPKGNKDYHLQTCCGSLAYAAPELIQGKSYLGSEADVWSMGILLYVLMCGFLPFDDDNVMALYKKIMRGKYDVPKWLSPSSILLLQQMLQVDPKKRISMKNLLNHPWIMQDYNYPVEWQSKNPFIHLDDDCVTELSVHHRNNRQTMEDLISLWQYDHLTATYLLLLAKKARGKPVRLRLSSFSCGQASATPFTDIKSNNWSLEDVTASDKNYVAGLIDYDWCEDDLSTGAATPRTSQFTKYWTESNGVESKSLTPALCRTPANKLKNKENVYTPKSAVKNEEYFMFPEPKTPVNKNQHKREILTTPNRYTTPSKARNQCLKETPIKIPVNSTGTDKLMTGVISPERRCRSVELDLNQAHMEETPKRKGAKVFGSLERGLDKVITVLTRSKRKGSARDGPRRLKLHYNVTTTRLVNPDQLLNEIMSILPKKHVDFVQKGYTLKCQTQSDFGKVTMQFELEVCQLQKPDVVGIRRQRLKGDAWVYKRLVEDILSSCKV
MAP4K5, sequence (Q9Y4K4 whole entry): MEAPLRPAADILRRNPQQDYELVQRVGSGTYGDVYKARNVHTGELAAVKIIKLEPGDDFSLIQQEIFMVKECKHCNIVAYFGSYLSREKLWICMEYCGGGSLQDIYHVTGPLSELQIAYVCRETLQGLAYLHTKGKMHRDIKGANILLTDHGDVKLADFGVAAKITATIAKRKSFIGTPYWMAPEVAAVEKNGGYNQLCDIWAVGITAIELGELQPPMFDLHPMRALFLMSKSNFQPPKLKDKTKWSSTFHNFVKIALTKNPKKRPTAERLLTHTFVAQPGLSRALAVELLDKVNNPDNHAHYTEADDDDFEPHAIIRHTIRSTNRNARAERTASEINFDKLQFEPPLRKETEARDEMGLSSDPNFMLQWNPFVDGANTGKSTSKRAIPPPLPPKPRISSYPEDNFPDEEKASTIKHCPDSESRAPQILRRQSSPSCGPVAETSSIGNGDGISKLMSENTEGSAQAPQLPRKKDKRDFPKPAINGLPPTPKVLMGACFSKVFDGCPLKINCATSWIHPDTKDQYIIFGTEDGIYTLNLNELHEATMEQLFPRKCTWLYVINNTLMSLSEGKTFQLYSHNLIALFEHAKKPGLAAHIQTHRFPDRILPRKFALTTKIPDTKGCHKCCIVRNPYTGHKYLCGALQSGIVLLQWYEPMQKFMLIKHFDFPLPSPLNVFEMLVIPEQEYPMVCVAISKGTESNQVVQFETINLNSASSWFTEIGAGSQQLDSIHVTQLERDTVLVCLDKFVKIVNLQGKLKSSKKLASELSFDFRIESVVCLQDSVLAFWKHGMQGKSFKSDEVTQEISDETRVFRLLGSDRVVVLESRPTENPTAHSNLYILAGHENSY
OXSR1, sequence (O95747 whole entry): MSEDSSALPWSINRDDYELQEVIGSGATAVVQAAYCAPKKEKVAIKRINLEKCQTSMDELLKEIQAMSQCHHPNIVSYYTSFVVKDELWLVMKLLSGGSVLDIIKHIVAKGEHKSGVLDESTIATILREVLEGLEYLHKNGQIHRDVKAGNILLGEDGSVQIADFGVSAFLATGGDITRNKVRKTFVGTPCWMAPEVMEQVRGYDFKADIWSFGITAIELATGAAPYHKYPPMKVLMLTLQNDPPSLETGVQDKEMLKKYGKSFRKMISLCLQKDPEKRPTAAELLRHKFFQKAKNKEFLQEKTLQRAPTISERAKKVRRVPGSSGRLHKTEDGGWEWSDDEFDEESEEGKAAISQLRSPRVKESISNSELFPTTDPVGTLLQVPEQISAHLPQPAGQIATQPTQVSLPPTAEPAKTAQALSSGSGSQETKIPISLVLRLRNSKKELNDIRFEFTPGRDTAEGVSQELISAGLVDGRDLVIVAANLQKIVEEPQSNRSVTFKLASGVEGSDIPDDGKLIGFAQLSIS
KIAA0999, sequence (Q9Y2K2 whole entry): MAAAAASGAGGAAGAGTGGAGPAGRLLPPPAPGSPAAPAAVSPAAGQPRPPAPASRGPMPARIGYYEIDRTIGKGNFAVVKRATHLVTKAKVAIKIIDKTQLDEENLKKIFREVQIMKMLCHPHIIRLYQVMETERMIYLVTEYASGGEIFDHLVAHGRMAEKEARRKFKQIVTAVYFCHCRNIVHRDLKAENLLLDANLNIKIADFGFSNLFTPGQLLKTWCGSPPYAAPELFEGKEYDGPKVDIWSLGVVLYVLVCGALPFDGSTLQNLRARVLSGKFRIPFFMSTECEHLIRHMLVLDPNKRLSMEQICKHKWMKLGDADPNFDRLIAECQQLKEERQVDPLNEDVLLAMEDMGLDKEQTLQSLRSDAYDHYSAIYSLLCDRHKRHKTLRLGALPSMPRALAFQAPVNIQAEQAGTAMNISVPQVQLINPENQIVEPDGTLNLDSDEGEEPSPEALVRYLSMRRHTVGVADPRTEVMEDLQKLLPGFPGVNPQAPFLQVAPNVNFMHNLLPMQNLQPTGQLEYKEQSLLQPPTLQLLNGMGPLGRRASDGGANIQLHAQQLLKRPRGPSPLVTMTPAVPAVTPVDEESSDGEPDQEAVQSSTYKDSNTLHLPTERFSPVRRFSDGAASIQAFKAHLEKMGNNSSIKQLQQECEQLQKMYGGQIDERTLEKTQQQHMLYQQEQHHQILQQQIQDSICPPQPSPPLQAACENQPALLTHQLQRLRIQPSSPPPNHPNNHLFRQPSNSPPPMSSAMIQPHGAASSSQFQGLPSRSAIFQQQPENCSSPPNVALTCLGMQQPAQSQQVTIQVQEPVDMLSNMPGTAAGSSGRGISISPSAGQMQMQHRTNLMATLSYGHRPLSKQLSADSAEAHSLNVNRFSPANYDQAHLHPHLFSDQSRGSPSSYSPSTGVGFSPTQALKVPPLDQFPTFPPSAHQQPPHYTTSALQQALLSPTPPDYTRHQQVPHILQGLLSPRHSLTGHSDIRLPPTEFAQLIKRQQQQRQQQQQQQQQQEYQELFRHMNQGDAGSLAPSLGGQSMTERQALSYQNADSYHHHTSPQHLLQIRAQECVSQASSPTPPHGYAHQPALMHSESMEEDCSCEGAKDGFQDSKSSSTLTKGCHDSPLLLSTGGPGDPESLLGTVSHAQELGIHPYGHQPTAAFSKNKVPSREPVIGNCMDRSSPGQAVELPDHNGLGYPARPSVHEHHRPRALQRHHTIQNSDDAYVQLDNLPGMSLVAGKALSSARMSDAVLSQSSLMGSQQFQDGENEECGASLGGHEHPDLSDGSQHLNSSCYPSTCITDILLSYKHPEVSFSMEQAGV

Usually IC50 stands for the concentration at which inhibition is half-maximal. Take `CN1CCN(c2ccc(Nc3ncc(C#N)c(Nc4ccccc4C(N)=O)n3)cc2)CC1.Cl` [TCMDC-134116]: the IC50 is 360 nM and 350 nM at MELK; no more than 32 nM against CSNK2A2; 48 nM and 93 nM on STK10; 280 nM and 290 nM at MAP4K5; 350 nM and 250 nM on KIAA0999; 81 nM and 130 nM against OXSR1. Also, the IC50 on EPHB6 was greater than 20000 nM; against RPS6KA5, 500 nM and 750 nM; against NEK1, 570 nM and 470 nM.
Consider `Cl.NCC1(c2nc(-c3ccc(Cl)c(O)c3)c(-c3ccncc3)[nH]2)CCCCC1` [TCMDC-141154], for which the concentration for half-maximal inhibition (IC50) against MELK is 4700 nM and 4500 nM; against CSNK2A2, greater than 20000 nM; against STK10, 57 nM; on MAP4K5 it was 5000 nM; against KIAA0999, 66 nM and 51 nM; against OXSR1, greater than 20000 nM. In addition, the half-maximal inhibitory concentration (IC50) against EPHB6, on RPS6KA5 and against NEK1 was greater than 20000 nM each time.
With `CN(C)CC(O)COc1ccc(Nc2ncc([N+](=O)[O-])c(Nc3ccccc3O)n2)cc1.O=C(O)C(F)(F)F` (stereo not drawn) [TCMDC-141399], the IC50 was greater than 20000 nM on MELK; 56 nM and 45 nM against CSNK2A2; 6300 nM on STK10; 4300 nM at MAP4K5; greater than 20000 nM on KIAA0999; greater than 20000 nM against OXSR1. For the same compound, the IC50 is greater than 20000 nM at EPHB6, greater than 20000 nM against RPS6KA5 and 6400 nM at NEK1.
